≈ marks a conversion by molar mass, not a printed value. Calls of active or inactive are those of the source. No cut-off for these calls is given here.
How the values were obtained:
Zymoseptoria tritici [1] = assay: Fungicidal activity against Zymoseptoria tritici isolate TAG1-18 with 120 bp insertion expressing CYP51 variant with combination of L50S, S188N, I381V, deltaY459/G460 and N513K mutations assessed as fungal growth inhibition; format: functional, organism-based
Zymoseptoria tritici [2] = assay: Fungicidal activity against Zymoseptoria tritici isolate OP6 without 120 bp insertion expressing CYP51 variant with combination of L50S, S188N, I381V, deltaY459/G460 and N513K mutations assessed as fungal growth inhibition; format: functional, organism-based
Zymoseptoria tritici [3] = assay: Fungicidal activity against Zymoseptoria tritici isolate R03-54 without 120 bp insertion expressing CYP51 variant with combination of L50S, S188N, I381V, deltaY459/G460 and N513K mutations assessed as fungal growth inhibition; format: functional, organism-based
Zymoseptoria tritici [4] = assay: Fungicidal activity against Zymoseptoria tritici isolate R03-29 without 120 bp insertion expressing CYP51 variant with combination of L50S, S188N, I381V, deltaY459/G460 and N513K mutations assessed as fungal growth inhibition; format: functional, organism-based
Zymoseptoria tritici [5] = assay: Fungicidal activity against Zymoseptoria tritici isolate IPO323 without 120 bp insertion expressing wild type CYP51 assessed as fungal growth inhibition; format: functional, organism-based
Zymoseptoria tritici [6] = assay: Fungicidal activity against Zymoseptoria tritici isolate TAG74-3 with 120 bp insertion expressing CYP51 variant with combination of L50S, S188N, I381V, deltaY459/G460 and N513K mutations assessed as fungal growth inhibition; format: functional, organism-based
Zymoseptoria tritici [7] = assay: Fungicidal activity against Zymoseptoria tritici isolate OP7 with 120 bp insertion expressing CYP51 variant with combination of L50S, S188N, I381V, deltaY459/G460 and N513K mutations assessed as fungal growth inhibition; format: functional, organism-based
Zymoseptoria tritici [8] = assay: (§1) Fungicidal activity against Zymoseptoria tritici isolate TAG74-3 with 120 bp insertion expressing CYP51 variant with combination of L50S, S188N, I381V, deltaY459/G460 and N513K mutations inoculated on compound pre-treated wheat cultivar Riband seedlings assessed as fungal DNA level at doses > 1/16 recommended field rate measured 21 days post fungal inoculation; format: functional, organism-based
Zymoseptoria tritici [9] = assay: as §1, with “OP7” for “TAG74-3”; format: functional, organism-based
Zymoseptoria tritici [10] = assay: as §1, with “pycnidia formation” for “fungal DNA level”; format: functional, organism-based
Zymoseptoria tritici [11] = assay: as §1, with “OP7” for “TAG74-3”, “pycnidia formation” for “fungal DNA level”; format: functional, organism-based
Zymoseptoria tritici [12] = assay: as §1, with “OP7” for “TAG74-3”, “pycnidia formation” for “fungal DNA level”, “39.06 ppm” for “doses > 1/16 recommended field rate”; format: functional, organism-based
Zymoseptoria tritici [13] = assay: as §1, with “R10-13 without” for “TAG74-3 with”, “39.06 ppm” for “doses > 1/16 recommended field rate”; format: functional
Zymoseptoria tritici [14] = assay: Fungicidal activity against Zymoseptoria tritici isolate V18 with 120 bp insertion expressing CYP51 variant with combination of L50S, S188N, I381V, deltaY459/G460 and N513K mutations assessed as fungal growth inhibition; format: functional, organism-based
Zymoseptoria tritici [15] = assay: Fungicidal activity against Zymoseptoria tritici isolate R10-13 without 120 bp insertion expressing CYP51 variant with combination of L50S, S188N, I381V, deltaY459/G460 and N513K mutations assessed as fungal growth inhibition; format: functional, organism-based
Zymoseptoria tritici [16] = assay: as §1, with “OP6 without” for “TAG74-3 with”, “39.06 ppm” for “doses > 1/16 recommended field rate”; format: functional
Zymoseptoria tritici [17] = assay: as §1, with “39.06 ppm” for “doses > 1/16 recommended field rate”; format: functional
Zymoseptoria tritici [18] = assay: as §1, with “OP7” for “TAG74-3”, “39.06 ppm” for “doses > 1/16 recommended field rate”; format: functional
Zymoseptoria tritici [19] = assay: as §1, with “pycnidia formation” for “fungal DNA level”, “39.06 ppm” for “doses > 1/16 recommended field rate”; format: functional, organism-based
Zymoseptoria tritici [20] = assay: as §1, with “pycnidia formation” for “fungal DNA level”, “28.13 ppm” for “doses > 1/16 recommended field rate”; format: functional, organism-based
Zymoseptoria tritici [21] = assay: as §1, with “OP7” for “TAG74-3”, “pycnidia formation” for “fungal DNA level”, “28.13 ppm” for “doses > 1/16 recommended field rate”; format: functional, organism-based
Zymoseptoria tritici [22] = assay: as §1, with “OP7” for “TAG74-3”, “28.13 ppm” for “doses > 1/16 recommended field rate”; format: functional
Zymoseptoria tritici [23] = assay: as §1, with “28.13 ppm” for “doses > 1/16 recommended field rate”; format: functional
Zymoseptoria tritici [24] = assay: as §1, with “OP6 without” for “TAG74-3 with”, “28.13 ppm” for “doses > 1/16 recommended field rate”; format: functional
Zymoseptoria tritici [25] = assay: as §1, with “R10-13 without” for “TAG74-3 with”, “28.13 ppm” for “doses > 1/16 recommended field rate”; format: functional

Row | Compound | EC50 (Zymoseptoria tritici [1]) | EC50 (Zymoseptoria tritici [2]) | EC50 (Zymoseptoria tritici [3]) | EC50 (Zymoseptoria tritici [4]) | EC50 (Zymoseptoria tritici [5]) | EC50 (Zymoseptoria tritici [6]) | EC50 (Zymoseptoria tritici [7]) | EC50 (Zymoseptoria tritici [14]) | EC50 (Zymoseptoria tritici [15]) | also measured
1 | O=C(Nc1ccccc1-c1ccc(Cl)cc1)c1cccnc1Cl [BOSCALID] | 0.976 µg/mL | 0.841 µg/mL | 0.766 µg/mL | 0.21 µg/mL | 0.554 µg/mL (≈ 1.61 µM) | 0.719 µg/mL | 0.808 µg/mL |  |  | 
2 | Fc1ccc([C@]2(Cn3cncn3)O[C@H]2c2ccccc2Cl)cc1 [EPOXICONAZOLE] | 0.911 µg/mL | 0.085 µg/mL | 0.092 µg/mL | 0.067 µg/mL | 0.0015 µg/mL (≈ 0.00455 µM) | 1.41 µg/mL | 0.819 µg/mL | 0.759 µg/mL | 0.091 µg/mL | Activity (Zymoseptoria tritici [8]): Active; Activity (Zymoseptoria tritici [9]): Active; Activity (Zymoseptoria tritici [10]): Active; Activity (Zymoseptoria tritici [11]): Active; Activity (Zymoseptoria tritici [12]): inactive; Activity (Zymoseptoria tritici [13]): 400 pg; Activity (Zymoseptoria tritici [16]): 14 pg; Activity (Zymoseptoria tritici [17]): 9284 pg; Activity (Zymoseptoria tritici [18]): 1600 pg; Activity (Zymoseptoria tritici [19]): inactive
3 | CC1(C)CCC(Cc2ccc(Cl)cc2)C1(O)Cn1cncn1 (stereo not drawn) [METCONAZOLE] | 0.602 µg/mL | 0.051 µg/mL |  | 0.032 µg/mL | < 0.0002 µg/mL | 1.39 µg/mL | 0.821 µg/mL |  | 0.097 µg/mL | Activity (Zymoseptoria tritici [8]): Active; Activity (Zymoseptoria tritici [9]): Active; Activity (Zymoseptoria tritici [10]): Active; Activity (Zymoseptoria tritici [11]): Active; Activity (Zymoseptoria tritici [20]): inactive; Activity (Zymoseptoria tritici [21]): inactive; Activity (Zymoseptoria tritici [22]): 5674 pg; Activity (Zymoseptoria tritici [23]): 1600 pg; Activity (Zymoseptoria tritici [24]): 65 pg; Activity (Zymoseptoria tritici [25]): 106 pg
4 | CCCN(CCOc1c(Cl)cc(Cl)cc1Cl)C(=O)n1ccnc1 [PROCHLORAZ] | 0.294 µg/mL | 0.019 µg/mL | 0.025 µg/mL | 0.077 µg/mL | 0.015 µg/mL (≈ 0.0398 µM) | 0.624 µg/mL | 0.229 µg/mL | 0.239 µg/mL | 0.049 µg/mL | 
5 | OC(Cc1ccccc1Cl)(Cn1cncn1)C1(Cl)CC1 (stereo not drawn) [PROTHIOCONAZOLE-DESTHIO] | 0.12 µg/mL | 0.0126 µg/mL | 0.0055 µg/mL | 0.0091 µg/mL | 0.00187 µg/mL (≈ 0.00599 µM) | 0.221 µg/mL | 0.135 µg/mL | 0.126 µg/mL | 0.0111 µg/mL | 
6 | CC(C)(C)C(O)(CCc1ccc(Cl)cc1)Cn1cncn1 (stereo not drawn) [TEBUCONAZOLE] | 7.81 µg/mL | 1.24 µg/mL | 1.5 µg/mL | 2.7 µg/mL | 0.041 µg/mL (≈ 0.133 µM) | 20.7 µg/mL | 8.22 µg/mL | 15.4 µg/mL | 2.34 µg/mL | 
7 | CN(C/C=C/C#CC(C)(C)C)Cc1cccc2ccccc12 [TERBINAFINE] | 0.053 µg/mL | 0.048 µg/mL |  | 0.063 µg/mL | 0.047 µg/mL (≈ 0.161 µM) | 0.061 µg/mL | 0.045 µg/mL | 0.053 µg/mL | 0.082 µg/mL | 

— ChEMBL document CHEMBL3046614, “Overexpression of the sterol 14α-demethylase gene (MgCYP51) in Mycosphaerella graminicola isolates confers a novel azole fungicide sensitivity phenotype” (Pest Manag Sci, 2012)
